“Also recorded” adds a separate entry of the source.
Key:
Male Wistar rats = assay: Maintenance operant nicotine self-administration; type: in vivo, rat
Experimental: Animals: Male Wistar rats were used in all experiments. Body weight was 180-200 g at the start of the experiments. Rats were housed 2-3 per cage with food and water available ad libitum. Lights were on a 12-hour light/dark cycle, with lights on at 0600. All procedures met the guidelines of the National Institutes of Health Guide for the Care and Use of Laboratory Animals.
Operant Nicotine Self-Administration: Nicotine (Sigma Chemical Co., St. Louis, Mo.) was added to saline to achieve a concentration of 0.03 mg/ml. Standard operant chambers (Med Associates, VT) housed in sound-attenuated chambers were used for nicotine self-administration. Syringe pumps delivered nicotine via tygon tubing. The two retractable levers were located 12 cm apart and 4 cm above the floor. Fluid delivery and recording of operant responding were controlled by microcomputer. Rats were trained on a […] fixed-ratio 4 (FR4) schedule to self-administer nicotine (0.03 mg/ml, 0.1 ml per delivery) in 60 minute sessions. Once reliable levels of nicotine-reinforced self-administration were achieved, the effect of Compound A (0, and 20 mg/kg) on maintenance levels of responding was investigated.

hMC5R [1] = biological target: T1, hMC5R (Homo sapiens, UniProt P33032); assay: Membrane binding assay, 125I-NDP-alpha-MSH competition; details: ratio IC50 MC-5R / IC50 MC-4R
T1 construct: expressed in transfected cells; host or cells: CHO- or L-cells or other eukaryotic cells
T1 sequence (P33032 whole entry): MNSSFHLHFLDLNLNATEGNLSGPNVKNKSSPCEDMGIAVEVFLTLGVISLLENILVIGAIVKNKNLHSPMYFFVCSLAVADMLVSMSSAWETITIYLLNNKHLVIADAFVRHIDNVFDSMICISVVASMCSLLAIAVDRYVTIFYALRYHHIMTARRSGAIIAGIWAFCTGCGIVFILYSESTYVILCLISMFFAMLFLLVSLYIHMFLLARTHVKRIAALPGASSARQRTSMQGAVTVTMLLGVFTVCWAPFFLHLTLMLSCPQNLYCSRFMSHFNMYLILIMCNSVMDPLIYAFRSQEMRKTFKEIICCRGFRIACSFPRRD
Experimental: (§1) The membrane binding assay was used to identify competitive inhibitors of ^125I-NDP-alpha-MSH binding to cloned human MCRs expressed in mouse L- or Chinese hamster ovary (CHO)-cells.
(§2) Cell lines expressing melanocortin receptors were grown in T-180 flasks containing selective medium of the composition: 1 L Dulbecco's modified Eagles Medium (DMEM) with 4.5 g L-glucose, 25 mM Hepes, without sodium pyruvate, (Gibco/BRl); 100 ml 10% heat-inactivated fetal bovine serum (Sigma); 10 mL 10,000 unit/mL penicillin & 10,000 μg/mL streptomycin (Gibco/BRl); 10 ml 200 mM L-glutamine (Gibco/BRl); 1 mg/mL geneticin (G418) (Gibco/BRl). The cells were grown at 37° C. with CO2 and humidity control until the desired cell density and cell number was obtained.
(§3) The medium was poured off and 10 mls/T-180 flask of enzyme-free dissociation media (Specialty Media Inc.) was added. The cells were incubated at 37° C. for 10 min or until cells sloughed off when flask was banged against hand.
(§4) The cells were harvested into 200 mL centrifuge tubes and spun at 1000 rpm, 4° C., for 10 min. […]
(§5) The mixture was filtered with Packard Microplate 196 filter apparatus using Packard Unifilter 96-well GF/C filter with 0.1% polyethyleneimine (Sigma). […] The top was sealed and the radioactivity quantitated in a Packard Topcount Microplate Scintillation counter.

hMC3R [2] = biological target: T2, hMC3R (Homo sapiens, UniProt P41968); assay: as above; details: ratio IC50 MC-3R / IC50 MC-4R
T2 construct: expressed in transfected cells; host or cells: CHO- or L-cells or other eukaryotic cells
T2 sequence (P41968 whole entry): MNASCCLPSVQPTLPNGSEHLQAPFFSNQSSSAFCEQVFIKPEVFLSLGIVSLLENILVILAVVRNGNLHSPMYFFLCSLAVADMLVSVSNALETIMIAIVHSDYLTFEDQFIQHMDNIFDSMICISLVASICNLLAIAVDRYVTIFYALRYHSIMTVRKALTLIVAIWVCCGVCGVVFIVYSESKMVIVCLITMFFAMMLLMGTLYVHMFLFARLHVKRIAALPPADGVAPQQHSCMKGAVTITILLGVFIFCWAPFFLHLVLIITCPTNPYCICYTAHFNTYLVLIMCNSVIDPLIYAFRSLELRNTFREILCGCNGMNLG
Experimental: as §1, §2, §3, §4, §5

hMC5R [3] = biological target: T1, hMC5R; assay: cAMP functional assay (agonist); type: cell-based
Experimental: (§6) Cells (for example, CHO- or L-cells or other eukaryotic cells) expressing a human melanocortin receptor (see e.g. Yang-Y K; Ollmann-M M; Wilson-B D; Dickinson-C; Yamada-T; Barsh-G S; Gantz-I; Mol-Endocrinol. 1997 March; 11(3): 274-80) were dissociated from tissue culture flasks by rinsing with Ca and Mg free phosphate buffered saline (14190-136, Life Technologies, Gaithersburg, Md.) and detached following 5 min incubation at 37° C. with enzyme free dissociation buffer (S-0,4-B, Specialty Media, Lavellette, N.J.). Cells were collected by centrifugation and resuspended in Earle's Balanced Salt Solution (14015-069, Life Technologies, Gaithersburg, Md.) with additions of 10 mM HEPES pH 7.5, 5 mM MgCl2, 1 mM glutamine and 1 mg/ml bovine serum albumin. Cells were counted and diluted to 1 to 5×10^6/mL. The phosphodiesterase inhibitor 3-isobutyl-1-methylxanthine was added to cells to 0.6 mM.
(§7) Agonist Assay: Test compounds were diluted in dimethylsulfoxide (DMSO) (10^−5 to 10^−10 M) and 0.1 volume of compound solution was added to 0.9 volumes of cell suspension; the final DMSO concentration was […]. After room temperature incubation for 45 min, cells were lysed by incubation at 100° C. for 5 min to release accumulated cAMP.
(§8) cAMP was measured in an aliquot of the cell lysate with the Amersham (Arlington Heights, Ill.) cAMP detection assay (RPA556). The amount of cAMP production which resulted from an unknown compound was compared to that amount of cAMP produced in response to alpha-MSH which was defined as a 100% agonist. The EC50 is defined as the compound concentration which results in half maximal stimulation, when compared to its own maximal level of stimulation.

hMC1bR = hMC1bR (Homo sapiens, UniProt Q01726); assay: cAMP functional assay (agonist); type: cell-based; details: selective functional activity
Chain of hMC1bR (Q01726 whole entry): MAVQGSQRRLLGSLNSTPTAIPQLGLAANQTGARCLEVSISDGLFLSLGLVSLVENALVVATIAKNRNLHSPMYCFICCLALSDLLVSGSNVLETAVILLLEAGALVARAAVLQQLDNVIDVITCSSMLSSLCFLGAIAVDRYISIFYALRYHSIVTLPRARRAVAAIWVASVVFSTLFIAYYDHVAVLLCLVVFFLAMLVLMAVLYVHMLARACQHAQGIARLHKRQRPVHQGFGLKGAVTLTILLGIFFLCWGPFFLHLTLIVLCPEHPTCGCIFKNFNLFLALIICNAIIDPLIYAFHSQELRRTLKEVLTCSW
Experimental: as §6, §7, §8

hMC3R [4] = biological target: T2, hMC3R; assay: cAMP functional assay (agonist); type: cell-based
Experimental: as §6, §7, §8

hMC2R = biological target: T3, hMC2R (Homo sapiens, UniProt Q01718); assay: cAMP functional assay (agonist); type: cell-based
T3 construct: expressed in transfected cells; host or cells: CHO- or L-cells or other eukaryotic cells
T3 sequence (Q01718 whole entry): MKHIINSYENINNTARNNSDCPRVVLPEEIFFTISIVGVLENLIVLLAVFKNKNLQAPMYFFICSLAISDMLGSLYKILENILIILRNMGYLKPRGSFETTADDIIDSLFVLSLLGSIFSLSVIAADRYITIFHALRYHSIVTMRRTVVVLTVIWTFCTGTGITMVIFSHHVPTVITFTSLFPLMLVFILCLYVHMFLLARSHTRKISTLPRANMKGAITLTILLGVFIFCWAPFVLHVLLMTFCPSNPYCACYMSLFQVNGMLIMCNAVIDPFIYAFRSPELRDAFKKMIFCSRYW
Experimental: as §6, §7, §8

[5] = selective functional activity, 45 min

Selectivity Binding IC50 5R/4R (hMC5R [1]): 36.36
Selectivity Binding IC50 3R/4R (hMC3R [2]): 163.6
Selectivity cAMP EC50 5R/4R (hMC5R [3]; ratio EC50 MC-5R / EC50 MC-4R): 100
EC50 for melanocortin 4 receptor lower than for melanocortin 5 receptor (hMC5R [3]; [5]): at least 100 fold
EC50 for melanocortin 4 receptor lower than for melanocortin 1 receptor (hMC1bR): at least 120 fold
Selectivity cAMP EC50 3R/4R (hMC3R [4]; ratio EC50 MC-3R / EC50 MC-4R): 65.71
EC50 for melanocortin 4 receptor lower than for melanocortin 3 receptor (hMC3R [4]; [5]): at least 65 fold
Selectivity cAMP EC50 2R/4R (hMC2R; ratio EC50 MC-2R / EC50 MC-4R): >714.2
EC50 for melanocortin 4 receptor lower than for melanocortin 2 receptor (hMC2R; [5]): at least 700 fold
SMILES: CC[C@H](NC(C)=O)c1cc(Cl)ccc1C1CCN(C(=O)[C@@H]2CN(C(C)(C)C)C[C@H]2c2ccc(F)cc2F)CC1 [Compound A]
effect on maintenance levels of nicotine self-administration (nicotine infusions) (Male Wistar rats; 20 mg/kg po prior to testing, 60 minute session, vs baseline (p=0.0001)): significant reductions from baseline levels; also recorded: significant reduction
response rates on the alternate (non-drug reinforced) lever (Male Wistar rats; Wistar rats, any dose tested (0, 20 mg/kg)): not significantly altered; also recorded: no significant effects
reduction of nicotine self administration (Male Wistar rats; Wistar rats, pre-treatment, maintenance period of regular nicotine use): approximately 85%

— patent US20080021067A1, “Methods For The Treatment Of Substance Abuse And Addiction” (priority 2004, published 2008)
